Laboratory results reported in patent publication EP4792811A1, “S1PR4 REGULATOR COMPOUND FOR MUSCLE DISEASE TREATMENT AND APPLICATION THEREOF” (Shengyuan Zetong (Shanghai) Pharmaceutical Co., Ltd, priority 2023, dated 2025).

Experiments:
S1PR2 = molecular target: T1, S1PR2 (Homo sapiens, UniProt O95136); test: FLIPR assay, S1PR2-CHO cell line; format: cell-based
T1 construct: expressed in transfected cells; host or cells: CHO
Protocol: (§1) ^a β-arrestin recruitment activity based on Tango-S1PR1-CHO-K1 and Tango-S1PR4-CHO-K1 cells, expressed as mean EC50 values ± SD. ^b FLIPR assays were performed using S1PR2-CHO and S1PR5-CHO cell lines, expressed as mean EC50 values ± SD. ^c β-arrestin recruitment activity based on PathHunter CHO-K1-S1PR3 cells, expressed as mean EC50 values ± SD. Data are the mean of at least two independent determinations, reported as mean ± SD (standard deviation).

S1PR4 = molecular target: T2, S1PR4 (Homo sapiens, UniProt O95977); test: S1PR4 internalization function test in S1PR4-293T cells; format: cell-based; details: 1 µM, 37 °C, 1.5 hours; detected immediately, or at 5 hours or 20 hours after treatment
T2 construct: expressed in transfected cells; host or cells: 293T
T2 sequence (O95977 1-384): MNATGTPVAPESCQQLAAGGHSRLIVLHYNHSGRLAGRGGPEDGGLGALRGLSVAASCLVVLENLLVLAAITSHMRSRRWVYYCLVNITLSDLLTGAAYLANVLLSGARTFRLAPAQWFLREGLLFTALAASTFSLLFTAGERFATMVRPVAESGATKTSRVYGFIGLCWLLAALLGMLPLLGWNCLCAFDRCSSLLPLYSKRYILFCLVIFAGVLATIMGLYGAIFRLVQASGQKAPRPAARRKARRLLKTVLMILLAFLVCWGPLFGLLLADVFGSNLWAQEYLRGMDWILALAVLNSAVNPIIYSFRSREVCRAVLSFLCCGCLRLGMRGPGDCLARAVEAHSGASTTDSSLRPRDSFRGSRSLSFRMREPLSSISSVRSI
Protocol: Therefore, the recovery degree of S1PR4 after internalization caused by Compound 30 was evaluated, and the recovery effect following receptor internalization caused by Compound 30 was assessed in cells with high S1PR4 expression.

hS1P1 = molecular target: T3, hS1P1 (Homo sapiens, UniProt P21453); test: Tango β-arrestin recruitment assay, Tango-hS1P1-CHO; format: cell-based; details: selectivity table; Tango-S1PR1-CHO-K1 cells
T3 construct: expressed in transfected cells; host or cells: CHO-K1
T3 sequence (P21453 whole entry): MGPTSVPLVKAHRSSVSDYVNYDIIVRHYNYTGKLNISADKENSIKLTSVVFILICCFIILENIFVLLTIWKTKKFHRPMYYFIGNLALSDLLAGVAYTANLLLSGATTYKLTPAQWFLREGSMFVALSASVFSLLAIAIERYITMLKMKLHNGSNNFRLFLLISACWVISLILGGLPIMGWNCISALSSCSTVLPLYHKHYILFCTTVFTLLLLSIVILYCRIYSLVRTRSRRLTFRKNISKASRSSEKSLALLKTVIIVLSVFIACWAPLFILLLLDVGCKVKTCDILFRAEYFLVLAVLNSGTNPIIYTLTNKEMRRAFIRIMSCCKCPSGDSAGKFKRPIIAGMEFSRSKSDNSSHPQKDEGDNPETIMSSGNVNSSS
Excerpt: The Tango assay detects ligand-dependent GPCR activity through the interaction between β-arrestin and GPCRs. […] The NTEV fragment and the tetracycline transactivator (tTA), an artificial transcription factor, are fused at the C-terminus of the GPCR, while the CTEV fragment is fused to human β-arrestin 2. To enhance the stability of the interaction between GPCR and β-arrestin, a short sequence from the C-terminus of the human arginine vasopressin receptor 2 (V2 tail) is inserted between the GPCR and NTEV. The V2 tail contains multiple GRK phosphorylation sites, which strengthen β-arrestin binding upon phosphorylation. The CTEV fragment carries the stabile point mutation S219P and is truncated at residue 221 to remove the autoinhibitory C-terminal tail. Meanwhile, β-arrestin 2 is truncated to lack the entire C-terminal tail (residues 383-410 deleted). This truncation confers robust stimulus-dependent receptor desensitization, thereby improving detection sensitivity compared with wild-type β-arrestin 2. The UAS reporter construct consists of upstream activating sequence (UAS) elements, a minimal CMV promoter, and a tTA-dependent luciferase reporter gene. Therefore, constructing Tango cells requires the co-transfection of the above three plasmids into host cells. Upon GPCR activation and β-arrestin recruitment, the TEV enzyme at the β-arrestin terminus cleaves tTA from the GPCR C-terminus. The released tTA initiates tTA-dependent luciferase transcription, and compound activity is ultimately determined by measuring luminescence intensity.
• 1) Tango cell line from was digested from the culture dish respectively. After cell counting, the cells were plated at a density of 10,000 cells per well with […] into a white opaque 96-well plate (add 60 µL D'Hanks to the surrounding wells), and incubated overnight (20 h) in a 5% CO2 incubator at 37°C. The cell density will reach approximately 90% the next day. • 2) After 20 h, 30 µL of serially diluted compound solution was added to each well. The control group was supplemented with 30 µL F12K complete medium. Each group had three replicate wells. • 3) Samples were collected after 20 h of drug treatment.
(All compounds were tested at a final concentration of 45 µM, with 9 serial dilutions at 5-fold intervals. 1 µM BAF-312 was used as the positive control for S1PR1, and 25 µM BAF-312 was used as the positive control for S1PR4.)
as §1

S1PR5 = molecular target: T4, S1PR5 (Homo sapiens, UniProt Q9H228); test: FLIPR assay, S1PR5-CHO cell line; format: cell-based
T4 construct: expressed in transfected cells; host or cells: CHO
T4 sequence (Q9H228 whole entry, species assumed): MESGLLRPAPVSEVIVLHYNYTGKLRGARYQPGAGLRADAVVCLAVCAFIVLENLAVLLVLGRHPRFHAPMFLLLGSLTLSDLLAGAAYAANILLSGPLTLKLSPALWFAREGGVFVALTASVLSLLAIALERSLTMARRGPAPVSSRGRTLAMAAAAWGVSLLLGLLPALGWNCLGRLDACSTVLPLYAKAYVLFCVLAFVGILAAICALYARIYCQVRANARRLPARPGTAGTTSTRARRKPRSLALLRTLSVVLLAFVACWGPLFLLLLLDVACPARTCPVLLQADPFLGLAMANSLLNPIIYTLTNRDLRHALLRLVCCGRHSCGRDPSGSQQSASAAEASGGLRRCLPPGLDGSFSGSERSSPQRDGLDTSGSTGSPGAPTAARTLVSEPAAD
Protocol: as §1

LPS-induced sepsis model = test: LPS-induced sepsis myopathy (skeletal muscle atrophy) model; format: in vivo, mice; details: for atrophy of the tibialis anterior muscle: 14 days of LPS treatment; for survival rate: 14 days after LPS (1 mg/kg)
Excerpt: Animal models of sepsis can be established by injecting exogenous toxins into animals. In this study, a sepsis model was established via intraperitoneal injection of lipopolysaccharide to observe the effects of compounds on the occurrence and development of acquired weakness. This is a widely used method for modeling sepsis.
A skeletal muscle atrophy model induced by lipopolysaccharide can simulate clinical muscle atrophy caused by sepsis.
Mice were given a single intraperitoneal injection of LPS (1 mg/kg), followed by 14 consecutive days of intraperitoneal injection of either vehicle (1% DMSO dissolved in physiological saline) or Compound 30. Body weight was measured daily. After 14 days of LPS treatment, the mice were anesthetized, and the gastrocnemius and tibialis anterior muscles were harvested.

[1] = compared with the endogenous ligand S1P

T1 sequence (O95136 whole entry, species assumed): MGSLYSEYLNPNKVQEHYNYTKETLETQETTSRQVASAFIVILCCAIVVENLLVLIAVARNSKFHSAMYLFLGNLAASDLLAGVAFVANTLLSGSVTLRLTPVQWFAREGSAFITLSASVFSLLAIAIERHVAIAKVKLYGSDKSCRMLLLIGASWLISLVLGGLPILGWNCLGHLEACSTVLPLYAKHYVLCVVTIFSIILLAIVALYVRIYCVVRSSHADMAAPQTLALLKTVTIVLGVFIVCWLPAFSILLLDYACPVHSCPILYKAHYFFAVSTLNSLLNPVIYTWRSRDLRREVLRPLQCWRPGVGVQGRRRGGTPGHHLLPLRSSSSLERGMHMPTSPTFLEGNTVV

## CCc1cc(/C(C)=N/OCc2ccc(-c3ccccc3)c(C)c2)ccc1CN1CC[C@H](C(=O)O)C1 [Compound 30]
S1PR2; [1]
  agonist activity on S1PR2: no agonist activity
S1PR2; selectivity table, FLIPR, S1PR2-CHO
  Emax: -6.9%
S1PR4
  S1PR4 internalization (expression of S1PR4 receptor on the cell surface): sustained internalization capacity
hS1P1
  Emax: 102%
S1PR5; [1]
  agonist activity on S1PR5: no agonist activity
S1PR5; selectivity table, FLIPR, S1PR5-CHO
  Emax: 19.5%
LPS-induced sepsis model; high dose (Compound 30: 10mg/kg intraperitoneal once daily), 10 mg/kg
  atrophy of the tibialis anterior muscle: significantly inhibited
LPS-induced sepsis model; low-dose group (0.1mg/kg intraperitoneal once daily)
  survival rate: 75%
LPS-induced sepsis model; medium dose (Compound 30: 1mg/kg intraperitoneal once daily), 1 mg/kg
  atrophy of the tibialis anterior muscle: significantly inhibited
LPS-induced sepsis model; medium-dose group (1mg/kg intraperitoneal once daily)
  survival rate: 50%
